Reference: patent US10570418B2, “Methods and compositions for RNA-directed target DNA modification” (The Regents of the University of California, priority 2014, dated 2020)
Entries after “also recorded” stand apart in the source; their conditions may differ.

Legend:
[1] = test system: EMX1 locus in HEK293T cells; experiment: NHEJ frequency by T7 endonuclease I assay, EMX1 locus, HEK293T cells; assay type: cell-based, human; conditions: for NHEJ frequency: nocodazole-treated cells (200 ng/ml, 17 h), 50-200 ρmol template 1
From the text: (§1) For EMX1: forward [NT] ID NO:1404) and [NT] NO:1405). For DYRK1: forward [NT] ID NO:1406) and reverse [NT] NO:1407).

[2] = test system: EMX1 locus in HEK293T cells; experiment: HDR frequency by HindIII digestion, EMX1 locus, HEK293T cells; assay type: cell-based, human; conditions: for HDR efficiency: 50-200 ρmol template 1
From the text: as §1

[3] = test system: EMX1 locus in human embryonic stem cells (hES); experiment: HDR frequency by HindIII digestion, EMX1 locus, human ES cells; assay type: cell-based; conditions: nocodazole synchronization (16 h), 30 or 100 ρmol Cas9 RNP, template 4
[4] = test system: DYRK1 locus in HEK293T cells; experiment: HDR frequency by HindIII digestion, DYRK1 locus, HEK293T cells; assay type: cell-based, human; conditions: for HDR frequency: nocodazole synchronized cells
[5] = test system: EMX1 locus in human embryonic stem cells (hES); experiment: NHEJ frequency by T7 endonuclease I assay, EMX1 locus, human ES cells; assay type: cell-based; conditions: nocodazole synchronization (16 h), 100 ρmol template 4
HEK293T cells = experiment: FACS analysis of DNA content / cell cycle; assay type: cell-based, human; conditions: nocodazole-treated vs untreated cells
From the text: The first objective was to test whether S phase was ideal for HDR in HEK293T cells. The approach was to chemically and reversibly synchronize the cells at G1, S and M phases (FIG. 1A). Lovastatin blocks at early G1 and partially at G2/M phase, by inhibiting HMG-CoA reductase and resulting in the depletion of mevalonate, which is an essential substrate for cholesterol synthesis. Mimosine arrests cells at the G1-S border prior to onset of DNA replication by an unknown mechanism. […] Excess thymidine causes feedback inhibition of deoxycytosine synthesis. Hydroxyurea blocks cells at S phase by decreasing the production of deoxyribonucleotide via inhibition of the enzyme ribonucleotide reductase. Nocodazole inhibits microtubule polymerization which is a signature structural feature as cells enter mitosis, causing arrest at G2/M phase. The drugs effects were confirmed by fluorescence activated cell sorter (FACS) analysis of the cell cycle (FIG. 1B).
FIG. 1A-1D depict the effect of cell cycle synchronization on NHEJ and HDR frequencies in HEK293T cells. (A) Chemical inhibitors were used to arrest cells at specific phases of cell cycle. Lovastatin (Lov) blocks cells in G1 phase by inhibiting cholesterol synthesis. […] The mean % NHEJ/HDR and standard deviation (error bars) were calculated from three experiments.

[6] = test system: DYRK1 locus in HEK293T cells; experiment: NHEJ frequency by T7 endonuclease I assay, DYRK1 locus, HEK293T cells; assay type: cell-based, human; conditions: for NHEJ frequency: nocodazole synchronized cells
human ES cells = experiment: Cell viability of human ES cells during synchronization; assay type: cell-based; conditions: hES cells; aphidicolin treatment after nocodazole, at 10 h
[7] = 30 and 100 ρmol Cas9 RNP, 100 ρmol HDR template 1, inhibitor synchronization before nucleofection
[8] = nocodazole synchronization, 30 ρmol Cas9 RNP, 50 ρmol HDR template
[9] = 30 ρmol of Cas9, 100 ρmol template 1
[10] = all doses of Cas9 RNP, vs unsynchronized
[11] = inhibitor-synchronized cells, 30 ρmol of Cas9, 100 ρmol template 1
[12] = 100 ρmol of Cas9, 100 ρmol template 1

Molecule: NC(Cn1ccc(=O)c(O)c1)C(=O)O (centres unmarked) [mimosine]
- NHEJ frequency compared to the unsynchronized cells [1, 7]: greatly decreased
- HDR frequency compared to the unsynchronized cells [2, 7]: greatly decreased

Molecule: template 7: double-stranded HDR template assembled from two fragments by overlapping PCR of HEK293T genomic DNA (sense AAGCTTGGATCC; antisense GGATCCAAGCTT; DNA, phosphodiester; double-stranded HDR donor assembled by overlapping PCR)
- HDR frequency [2, 8]: ~7%

Molecule: COC(=O)Nc1nc2ccc(C(=O)c3cccs3)cc2[nH]1 [nocodazole]
- HDR events [3]: no HDR event was detected
- NHEJ frequency compared to the unsynchronized cells [1, 9]: increased the NHEJ frequency slightly
- Increase of NHEJ frequency by synchronization ([1]; nocodazole vs unsynchronized, 10 ρmol Cas9 RNP): two-fold
- Increase of NHEJ frequency by synchronization ([1]; nocodazole vs unsynchronized, 30 ρmol Cas9 RNP): 1.5 fold
- Enhancement of NHEJ frequency by synchronization ([1]; nocodazole vs unsynchronized, 100 ρmol Cas9 RNP): diminished
- NHEJ frequency ([1]; 10 ρmol Cas9 RNP): 15-17%
- NHEJ frequency ([1]; 30 ρmol Cas9 RNP): 35-37%
- NHEJ frequency ([1]; 100 ρmol Cas9 RNP): 46-49%
- Enhancement of HDR frequency by nocodazole synchronization [4, 10]: over six-fold
- HDR frequency ([4]; 10 ρmol Cas9 RNP): 5-6%
- HDR frequency ([4]; 30 ρmol Cas9 RNP): 12-17%
- HDR frequency ([4]; 100 ρmol Cas9 RNP): 24-25%
- HDR frequency relative to the unsynchronized cells ([2]; 30 ρmol Cas9 RNP, 50 ρmol HDR template (templates 1-7)): overall higher HDR frequency
- HDR frequency [2, 11]: 19%
- HDR efficiency ([2]; nocodazole synchronization, 10 ρmol Cas9 RNP): 9-15%
- HDR efficiency ([2]; nocodazole synchronization, 30 ρmol Cas9 RNP): 22-28%
- HDR efficiency ([2]; nocodazole synchronization, 100 ρmol Cas9 RNP): 24-32%
- Highest HDR frequency (representative gel of triplicate experiment) ([2]; nocodazole synchronization, 100 ρmol of Cas9, 100 ρmol template 1): 31%
- NHEJ frequency ([5]; 30 ρmol Cas9 RNP): 9%
- NHEJ frequency ([5]; 100 ρmol Cas9 RNP): 28-31%
- Enrichment of cells arrested at M phase (DNA content, FACS) (HEK293T cells): two-fold enrichment; also recorded: three-fold enrichment
- Enhancement of NHEJ frequency by nocodazole synchronization [6, 10]: more than two-fold
- NHEJ frequency ([6]; 10 ρmol Cas9 RNP): 20-24%
- NHEJ frequency ([6]; 30 ρmol Cas9 RNP): 45-47%
- NHEJ frequency ([6]; 100 ρmol Cas9 RNP): 63-65%

Molecule: template 4: single-stranded HDR template, 90-nt homology arms, complementary orientation (DNA GGATCCAAGCTT; single-stranded DNA HDR donor oligonucleotide, chemistry not given here)
- HDR frequency [2, 8]: 23%

Molecule: template 6: double-stranded HDR template PCR amplified from single-stranded template 5 (sense AAGCTTGGATCC; antisense GGATCCAAGCTT; DNA, phosphodiester; double-stranded PCR-amplified HDR donor)
- HDR frequency [2, 8]: ~7%

Molecule: C[C@@]1(CO)[C@H](O)CC[C@@]2(C)[C@H]1CC[C@H]1C[C@@H]3C[C@@]12CC[C@]3(O)CO [aphidicolin]
- Cell viability (human ES cells): substantial drop in cell viability
- NHEJ frequency compared to the unsynchronized cells [1, 9]: increased the NHEJ frequency slightly
- HDR frequency [2, 11]: 15%
- HDR frequency with aphidicolin block ([2]; nocodazole synchronized, aphidicolin 2 μg/ml added to media immediately after nucleofection, 30 ρmol Cas9 RNP, 50 ρmol template): significantly reduced

Molecule: template 1: 183-nt single-strand DNA oligonucleotide HDR donor encoding a HindIII site, 90-nt and 55-nt asymmetrical homology arms (DNA CCACCGCTACGAAGCTTGTCATTGGAGGTGACATCGATGTCCTC; single-stranded DNA HDR donor oligonucleotide, chemistry not given here)
- HDR frequency compared between templates ([2]; 30 ρmol Cas9 RNP, 50 ρmol HDR template): lower HDR frequency than template 3

Molecule: CC[C@H](C)C(=O)O[C@H]1C[C@@H](C)C=C2C=C[C@H](C)[C@H](CC[C@@H]3C[C@@H](O)CC(=O)O3)[C@H]21 [lovastatin]
- NHEJ frequency compared to the unsynchronized cells [1, 7]: greatly decreased
- HDR frequency compared to the unsynchronized cells [2, 7]: greatly decreased

Molecule: template 2: single-stranded oligonucleotide HDR template with HindIII and BamHI sites, 30-nt homology arms (DNA GGATCCAAGCTT; single-stranded DNA HDR donor oligonucleotide, chemistry not given here)
- HDR frequency [2, 8]: 5%

Molecule: template 3: single-stranded oligonucleotide HDR template with HindIII and BamHI sites, 60-nt homology arms (DNA GGATCCAAGCTT; single-stranded DNA HDR donor oligonucleotide, chemistry not given here)
- HDR frequency [2, 8]: 19%
- Increase of HDR frequency on extending homology arms from 30 nt to 60 nt ([2]; nocodazole synchronization, vs template 2): four-fold

Molecule: NC(=O)NO [hydroxyurea]
- NHEJ frequency compared to the unsynchronized cells [1, 7]: greatly decreased
- HDR frequency compared to the unsynchronized cells [2, 7]: greatly decreased

Molecule: Cc1cn([C@H]2C[C@H](O)[C@@H](CO)O2)c(=O)[nH]c1=O [thymidine]
- NHEJ frequency compared to the unsynchronized cells [1, 9]: slightly reduced
- NHEJ frequency compared to the unsynchronized cells (reduced or not) [1, 12]: not
- HDR frequency compared to the unsynchronized cells [2, 9]: slightly reduced
- HDR frequency compared to the unsynchronized cells (reduced or not) [2, 12]: not

B1: template 5: single-stranded HDR template, 90-nt homology arms, non-complementary orientation (SEQ ID NO:1397) (nucleic acid)
DNA: TGGCCAGGGAGTGGCCAGAGTCCAGCTTGGGCCCACGCAGGGGCCTGGCCAGCAGCAAGCAGCACTCTGCCCTCGTGGGTTTGTGGTTGCGGATCCAAGCTTTTGGAGGTGACATCGATGTCCTCCCCATTGGCCTGCTTCGTGGCAATGCGCCACCGGTTGATGTGATGGGAGCCCTTCTTCTTCTGCTCG
modifications: Synthetic nucleic acid sequence
- HDR frequency [2, 8]: 20%
